Results: patent US11944111B2, “Stabilizing sorbic acid in beverage syrup” (PepsiCo, Inc., priority 2015, dated 2024)
Read-outs that look alike come from different tables or passages of the source.

Assays:
[1] = UV-vis 263 nm, saturated solution
Description: According to the Lambert-Beer Law, the concentration of sorbic acid is proportional to absorption intensity (Abs(Intesity)=K [Sorbic Acid]).

[2] = cited from earlier work
[3] = aqueous solution, pH between 2.5 and 4, about 20 C

Structure (SMILES) | Abs (pH 2.5) ([1]; aged at 40 F. 0 day) | Abs (pH 2.5) ([1]; aged at 40 F. 7 days) | Abs (pH 3.0) ([1]; aged at 40 F. 7 days) | Stability (crystals) (aged at 40 F. 0 day) | Stability (crystals) (aged at 40 F. 7 days) | solubility of sorbic acid in high acid syrup ([2]; 60% brix syrup) [%] | sorbate concentration at which sorbic acid precipitation begins [2, 3] | sorbate concentration at which the tendency to precipitate is clear [2, 3] [ppm]
C/C=C/C=C/C(=O)[O-].[K+] [Potassium Sorbate] | 1.644 | 1.357 | 1.24 | no crystals | lot of crystals | – | – | –
C/C=C/C=C/C(=O)O [sorbic acid] | – | – | – | – | – | 0.08 | about 500 ppm | 1300
